One assay concerns the target T1, 5-HT uptake (Rattus norvegicus, UniProt P31652).
T1 construct: from tissue; host or cells: rat brain synaptosomes (P2 fraction) from marrow (medulla) and pons
The assay is described as follows: Inhibition of 5-HT uptake in rat brain synaptosomes. The assay is classed as biochemical. The conditions noted are these: rat synaptosomes (medulla and pons), [3H]-5-HT. How it is done: The relevant literature reference is enclosed herein by reference and is to be regarded as part of the disclosure.
The homogenate is centrifuged at 4° C. for 10 minutes at 1000 g. Following subsequent centrifugation at 17,000 g for 55 minutes, the synaptosomes (P2 fraction) are obtained, which are then resuspended in 0.32 M […] (0.5 mL/100 mg of the original weight).
The respective uptake was measured in a 96 well microtiter plate. The volume was 250 μL and the incubation was carried out at room temperature (ca 20-25° C.) under a blanket of oxygen.
The 96 samples through were then filtered through a Unifilter GF/B® microtiter plate (Packard) and washed with 200 mL of incubated buffer with the aid of a “Brabdel Cell-Harvester MPXRI 96T”. The Unifilter GF/B plate was dried at 55° C. over a period of 1 h. The plate was then sealed with a back seal® (Packard) and there were then added 35 μL of scintillant fluid per well (Ultima Gold, Packard).
A detailed description of the method is disclosed in the literature, for example, in M. Ch.
T1 sequence (P31652 whole entry): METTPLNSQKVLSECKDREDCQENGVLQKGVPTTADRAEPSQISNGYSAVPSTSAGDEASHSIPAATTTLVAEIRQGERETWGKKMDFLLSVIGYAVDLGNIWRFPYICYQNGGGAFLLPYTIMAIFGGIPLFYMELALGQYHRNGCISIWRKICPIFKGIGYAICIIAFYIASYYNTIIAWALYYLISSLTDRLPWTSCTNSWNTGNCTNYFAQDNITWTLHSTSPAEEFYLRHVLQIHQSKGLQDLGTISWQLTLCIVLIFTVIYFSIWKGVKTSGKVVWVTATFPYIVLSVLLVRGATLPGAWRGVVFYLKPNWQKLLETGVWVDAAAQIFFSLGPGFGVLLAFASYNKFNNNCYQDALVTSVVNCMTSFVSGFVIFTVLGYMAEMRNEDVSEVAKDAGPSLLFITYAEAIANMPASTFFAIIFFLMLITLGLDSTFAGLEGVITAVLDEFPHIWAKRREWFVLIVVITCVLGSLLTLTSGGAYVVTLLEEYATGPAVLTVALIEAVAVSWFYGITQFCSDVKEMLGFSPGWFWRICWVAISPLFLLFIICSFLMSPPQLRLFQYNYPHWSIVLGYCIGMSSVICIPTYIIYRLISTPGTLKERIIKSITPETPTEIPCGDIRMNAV
T2 sequence (Q63380 1-617): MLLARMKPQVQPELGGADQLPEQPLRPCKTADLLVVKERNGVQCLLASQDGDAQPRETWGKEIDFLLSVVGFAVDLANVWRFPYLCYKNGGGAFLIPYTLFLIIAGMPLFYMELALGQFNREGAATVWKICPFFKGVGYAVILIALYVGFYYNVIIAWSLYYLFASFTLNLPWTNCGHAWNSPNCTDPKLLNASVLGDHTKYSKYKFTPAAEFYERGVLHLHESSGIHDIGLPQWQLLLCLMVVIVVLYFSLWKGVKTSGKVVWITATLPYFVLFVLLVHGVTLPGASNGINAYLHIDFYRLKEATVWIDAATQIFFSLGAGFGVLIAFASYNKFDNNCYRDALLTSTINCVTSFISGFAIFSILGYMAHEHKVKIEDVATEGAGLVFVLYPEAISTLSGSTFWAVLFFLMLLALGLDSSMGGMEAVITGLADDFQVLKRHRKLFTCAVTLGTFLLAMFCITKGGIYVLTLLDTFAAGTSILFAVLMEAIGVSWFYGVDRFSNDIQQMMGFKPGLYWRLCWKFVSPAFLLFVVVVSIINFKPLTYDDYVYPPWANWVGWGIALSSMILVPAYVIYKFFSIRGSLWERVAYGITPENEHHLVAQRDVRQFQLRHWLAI
The compound `O=C(CCc1ccccc1)Nc1nc2c(s1)CCCC2C(=O)N1CCN(c2cccc(C(F)(F)F)c2)CC1` (stereo not drawn) [Example 72, 3-Phenyl-N-{4-[4-(3-trifluoromethylphenyl)piperazin-1-carbonyl]-4,5,6,7-tetrahydrobenzthiazol-2-yl}propionamide] returned an inhibition at 10 µM of 84%.
The compound `CCOc1ccccc1C(=O)Nc1nc2c(s1)CCCC2C(=O)N1CCN(C(C)c2ccccc2)CC1` (stereo not drawn) [Example 75, 2-Ethoxy-N-{4-[4-(1-phenylethyl)piperazin-1-carbonyl]-4,5,6,7-tetrahydrobenzthiazol-2-yl}benzamide] registered an inhibition at 10 µM of 59%.
The same measure, in the same setting: in the case of `O=C(Cc1cc(F)cc(F)c1)Nc1nc2c(s1)CCCC2C(=O)N1CCCC1CN1CCCC1` (stereo not drawn) [Example 57, 2-(3,5-Difluorophenyl)-N-[4-(2-pyrrolidin-1-ylmethylpyrrolidin-1-carbonyl)-4,5,6,7-tetrahydrobenzthiazol-2-yl]acetamide] it was 72%.
With `CCOc1ccccc1C(=O)Nc1nc2c(s1)CCCC2C(=O)N1CCCC1CN1CCCC1` (stereo not drawn) [Example 31, 2-Ethoxy-N-[4-(2-pyrrolidin-1-ylmethylpyrrolidin-1-carbonyl)-4,5,6,7-tetrahydrobenzthiazol-2-yl]benzamide], at 10 µM the inhibition was 59%.
The compound `CN(C)c1ccc(CNC(=O)C2CCCc3sc(NC(=O)c4ccc5ccccc5c4)nc32)cc1` (stereo not drawn) [Example 45, 2-[(Naphthalene-2-carbonyl)amino]-4,5,6,7-tetrahydrobenzthiazol-4-carboxylic acid 4-dimethylaminobenzylamide] yielded an inhibition at 10 µM of 42%.
Take `CCCCCC(=O)Nc1nc2c(s1)CCCC2C(=O)N1CCN(Cc2ccc(OC)c(F)c2)CC1` (stereo not drawn) [Example 59, Hexanoic acid{4-[4-(3-fluoro-4-methoxybenzyl)piperazin-1-carbonyl]-4,5,6,7-tetrahydrobenzthiazol-2-yl}amide]: the “% Inhibition of 5-HT uptake [10 μM]” value worked out at 46%.
The same measure, in the same setting: in the case of `CCOc1ccccc1CN1CCC(CNC(=O)C2CCCc3sc(NC(=O)COc4ccccc4)nc32)C1` (stereo not drawn) [Example 51, 2-(2-Phenoxyacetylamino)-4,5,6,7-tetrahydrobenzthiazol-4-carboxylic acid[1-(2-ethoxybenzyl)pyrrolidin-3-yl]methylamide] it was 59%; in that of `O=C(Nc1nc2c(s1)CCCC2C(=O)N1CCCC1CN1CCCC1)c1ccc2ccccc2c1` (stereo not drawn) [Example 26, Naphthalene-2-carboxylic acid[4-(2-pyrrolidin-1-ylmethylpyrrolidin-1-carbonyl)-4,5,6,7-tetrahydrobenzthiazol-2-yl]amide], 80%.
Regarding `COc1ccc(C(=O)Nc2nc3c(s2)CCCC3C(=O)N2CCN(Cc3ccc(Cl)cc3)CC2)cc1` (stereo not drawn) [Example 25, N-{4-[4-(4-Chlorobenzyl)piperazin-1-carbonyl]-4,5,6,7-tetrahydrobenzthiazol-2-yl}-4-methoxybenzamide], at 10 µM the inhibition was 53%.
`O=C(Cc1cccs1)Nc1nc2c(s1)CCCC2C(=O)N1CCCC1CN1CCCC1` (stereo not drawn) [Example 5, N-[4-(2-Pyrrolidin-1-ylmethylpyrrolidin-1-carbonyl)-4,5,6,7-tetrahydrobenzthiazol-2-yl]-2-thiophen-2-ylacetamide] registered an inhibition at 10 µM of 41%.

The next assay concerns the target T2, NA transporter (Rattus norvegicus, UniProt Q63380).
T2 construct: from tissue; host or cells: rat brain synaptosomes (P2 fraction) from hypothalamus
In words: Inhibition of noradrenaline uptake in rat brain synaptosomes. Type of assay: biochemical. The conditions noted are these: 10 μM; rat synaptosomes (hypothalamus), [3H]-NA. As to the method:
II. […] For in vitro studies, synaptosomes of rat brain areas are freshly isolated, as described in the article “The isolation of nerve endings from brain” by E. G. Gray and […]. Anatomy 96, pages 79-88, 1962. The relevant literature reference is enclosed herein by reference and is to be regarded as part of the disclosure. […] The homogenate is centrifuged at 4° C. for 10 minutes at 1000 g. […] The respective uptake was measured in a 96 well microtiter plate. The volume was 250 μL and the incubation was carried out at room temperature (ca 20-25° C.) under a blanket of oxygen. […] The 96 samples through were then filtered through a Unifilter GF/B® microtiter plate (Packard) and washed with 200 mL of incubated buffer with the aid of a “Brabdel Cell-Harvester MPXRI 96T”. The Unifilter GF/B plate was dried at 55° C. over a period of 1 h. The plate was then sealed with a back seal® (Packard) and there were then added 35 μL of scintillant fluid per well (Ultima Gold, Packard). Following sealing with a top seal® (Packard) and following adjustment of the equilibrium (approximately over a period of 5 h), the radioactivity is determined in a 1450 Microbeta® (Wallac). […] The amount of protein used in the above determination corresponded to the values known from the literature, such as is described in “Protein measurement with the folin phenol reagent”, Lowry et al., J. Biol. Chem., 193, 265-275, 1951. A detailed description of the method is disclosed in the literature, for example, in […], and B. […] The relevant literature references are incorporated herein by reference and are to be regarded as part of the disclosure.
On to `CCCCCC(=O)Nc1nc2c(s1)CCCC2C(=O)N1CCN(c2ccccc2F)CC1` (stereo not drawn) [Example 52, Hexanoic acid{4-[4-(2-fluorophenyl)piperazin-1-carbonyl]-4,5,6,7-tetrahydrobenzthiazol-2-yl}amide], for which the “% Inhibition of NA uptake [10 μM]” value is 72%.
Turning to `N#Cc1ccccc1N1CCN(C(=O)C2CCCc3sc(NC(=O)c4ccco4)nc32)CC1` (stereo not drawn) [Example 47, Furan-2-carboxylic acid{4-[4-(2-cyan-phenyl)piperazin-1-carbonyl]-4,5,6,7-tetrahydrobenzthiazol-2-yl]-amide], the “% Inhibition of NA uptake [10 μM]” value stood at 47%.
For `N#Cc1ccccc1N1CCN(C(=O)C2CCCc3sc(NC(=O)CCc4ccccc4)nc32)CC1` (stereo not drawn) [Example 77, N-{4-[4-(2-Cyan-phenyl)piperazin-1-carbonyl]-4,5,6,7-tetrahydrobenzthiazol-2-yl}-3-phenylpropionamide], the “% Inhibition of NA uptake [10 μM]” value came to 44%.
With `CC(C(=O)Nc1nc2c(s1)CCCC2C(=O)NCC1CCN(Cc2ccccc2OCc2ccccc2)C1)c1ccccc1` (stereo not drawn) [Example 36, 2-(2-Phenylpropionylamino)-4,5,6,7-tetrahydrobenzthiazol-4-carboxylic acid[1-(2-benzyloxybenzyl)pyrrolidin-3-yl]methylamide], the “% Inhibition of NA uptake [10 μM]” value stood at 62%.
As to `CC(C(=O)Nc1nc2c(s1)CCCC2C(=O)NC1CCN(Cc2ccc(Oc3ccccc3)cc2)C1)c1ccccc1` (stereo not drawn) [Example 15, 2-(2-Phenylpropionylamino)-4,5,6,7-tetrahydrobenzthiazol-4-carboxylic acid[1-(4-phenoxybenzyl)pyrrolidin-3-yl]amide], the “% Inhibition of NA uptake [10 μM]” value worked out at 91%.

The assay is the same for the next values; noted with them: 10 μM; rat synaptosomes (hypothalamus), [3H]-NA; read-out: % Inhibition of NA uptake [10 μM].
In the case of `O=C(CCc1ccccc1)Nc1nc2c(s1)CCCC2C(=O)N1CCN(c2cccc(C(F)(F)F)c2)CC1` (stereo not drawn) [Example 72, 3-Phenyl-N-{4-[4-(3-trifluoromethylphenyl)piperazin-1-carbonyl]-4,5,6,7-tetrahydrobenzthiazol-2-yl}propionamide], the inhibition at 10 µM was 51%.
As to `O=C(Nc1nc2c(s1)CCCC2C(=O)NCCN1CCCCCC1)c1ccoc1` (stereo not drawn) [Example 16, 2-[(Furan-3-carbonyl)amino]-4,5,6,7-tetrahydrobenzthiazol-4-carboxylic acid (2-azepan-1-ylethyl)amide], the inhibition at 10 µM was 88%.
On the same count and under the same terms, in the case of `CN(C(=O)C1CCCc2sc(NC(=O)COc3ccccc3)nc21)C1CCN(Cc2ccccc2C(F)(F)F)C1` (stereo not drawn) [Example 54, 2-(2-Phenoxyacetylamino)-4,5,6,7-tetrahydrobenzthiazol-4-carboxylic acid methyl-[1-(2-trifluoromethylbenzyl)pyrrolidin-3-yl]amide] it was 44%; in that of `CCOc1ccccc1C(=O)Nc1nc2c(s1)CCCC2C(=O)N1CCN(C(C)c2ccccc2)CC1` (stereo not drawn) [Example 75, 2-Ethoxy-N-{4-[4-(1-phenylethyl)piperazin-1-carbonyl]-4,5,6,7-tetrahydrobenzthiazol-2-yl}benzamide], 51%.
Still for that read-out and setting: the same measure for `CC(c1ccccc1)N1CCN(C(=O)C2CCCc3sc(NC(=O)COc4ccccc4)nc32)CC1` (stereo not drawn) [Example 66, 2-Phenoxy-N-{4-[4-(1-phenylethyl)piperazin-1-carbonyl]-4,5,6,7-tetrahydrobenzthiazol-2-yl}acetamide]: 48%; for `CCN(CC)CCNC(=O)C1CCCc2sc(NC(=O)CCc3ccccc3)nc21` (stereo not drawn) [Example 38, 2-(3-Phenylpropionylamino)-4,5,6,7-tetrahydrobenzthiazol-4-carboxylic acid (2-diethylaminoethyl)amide]: 42%; for `COc1ccc(N2CCN(C(=O)C3CCCc4sc(NC(=O)C(C)c5ccccc5)nc43)CC2C)cc1` (stereo not drawn) [Example 60, N-{4-[4-(4-Methoxyphenyl)-3-methylpiperazin-1-carbonyl]-4,5,6,7-tetrahydrobenzthiazol-2-yl}-2-phenylpropionamide]: 41%.
On to `COc1ccccc1CC(=O)Nc1nc2c(s1)CCCC2C(=O)NCC1CCN(Cc2cc3ccccc3o2)C1` (stereo not drawn) [Example 56, 2-[2-(2-Methoxyphenyl)acetylamino]-4,5,6,7-tetrahydrobenzthiazol-4-carboxylic acid (1-benzofuran-2-ylmethylpyrrolidin-3-yl)methylamide], for which the inhibition at 10 µM was determined as 49%.
In the case of `O=C(C=Cc1ccco1)Nc1nc2c(s1)CCCC2C(=O)N1CCN(Cc2ccsc2)CC1` (stereo not drawn) [Example 11, 3-Furan-2-yl-N-[4-(4-thiophen-3-ylmethylpiperazin-1-carbonyl)-4,5,6,7-tetrahydrobenzthiazol-2-yl]acrylamide], the inhibition at 10 µM is 57%.
For the compound `CN(C)c1ccc(CNC(=O)C2CCCc3sc(NC(=O)c4ccco4)nc32)cc1` (stereo not drawn) [Example 58, 2-[(Furan-2-carbonyl)amino]-4,5,6,7-tetrahydrobenzthiazol-4-carboxylic acid 4-dimethylaminobenzylamide], the inhibition at 10 µM stood at 72%.
Same read-out and setting: the same measure for `CC(C(=O)Nc1nc2c(s1)CCCC2C(=O)NCCN(C)C)c1ccccc1` (stereo not drawn) [Example 19, 2-(2-Phenylpropionylamino)-4,5,6,7-tetrahydrobenzthiazol-4-carboxylic acid (2-dimethylaminoethyl)amide]: 71%.
As to `COc1ccc2ccccc2c1CN1CCN(C(=O)C2CCCc3sc(NC(=O)CC(C)(C)C)nc32)CC1` (stereo not drawn) [Example 79, N-{4-[4-(2-Methoxynaphthalene-1-ylmethyl)piperazin-1-carbonyl]-4,5,6,7-tetrahydrobenzthiazol-2-yl}-3,3-dimethylbutyramide], the inhibition at 10 µM came out at 71%.

The term inhibition denotes the share of the control response that was lost under treatment.

(Values after patent US7348347B2, “Substituted 4,5,6,7-tetrahydrobenzthiazol-2-ylamine compounds” (Gruenenthal GmbH, priority 2004, dated 2008).)
